{"source": "paper PMC4917206", "about": "“Chemical Modification of Influenza CD8+ T-Cell Epitopes Enhances Their Immunogenicity Regardless of Immunodominance” (PLoS ONE, 2016)", "key": {"[1]": {"system": "splenocytes of WT-vaccinated HLA-A2 tg mice", "format": "cell-based, mouse", "design": "key to response compared with WT peptide control, mouse splenocytes: *: Lower response than WT peptide"}, "[2]": {"system": "[…]-specific T cell clone", "format": "cell-based"}, "[3]": {"system": "CD8+ T cells of HLA-A2+ human donors", "format": "cell-based", "design": "key to response compared with WT peptide control, DC model: *: Lower response than WT peptide"}, "HLA-A*0201": {"target": "T1, HLA-A*0201 (Homo sapiens, UniProt P04439, D140Y/D185E/D98H/E176V/E277Q/G131W/G231S/I119V/I121R/I166T/I218V/L300P/L318F/N151K/N90K/P208A/P217A/Q86G/Q94H/R138H/R169H/T345S)", "T1 construct": "Soluble MHC was dissolved in PBS containing 0.5 mg/ml bovine γ-globulin; made in house", "format": "binding"}, "HLA-A2 transgenic mice": {"system": "HLA-A2 transgenic mice", "details": "mouse, in vivo; for IFN-γ ELISpot response after restimulation with WT peptide / IFN-γ ELISpot response after restimulation with homologous peptide: sc"}}, "note": "“Also recorded” adds a separate entry of the source."}
{"substance": "[4-pyra]ILGFVFTL [G10]", "values": [{"measurement": "Mouse splenocytes (ex vivo assay), Average", "setting": "[1]", "result": 47}, {"measurement": "T cell clone: percentage of IFN-γ producing T cells, Average", "setting": "[2]", "result": 45.4, "unit": "%"}, {"measurement": "DC model: IFN-γ-positive CD8+ T cells, Average", "setting": "[3]", "result": 0.14}]}
{"substance": "[4-PYRA]ILGFVFTL [G15]", "values": [{"measurement": "Mouse splenocytes (ex vivo assay), Average", "setting": "[1]", "result": 53}, {"measurement": "T cell clone: percentage of IFN-γ producing T cells, Average", "setting": "[2]", "result": 33.4, "unit": "%"}, {"measurement": "DC model: IFN-γ-positive CD8+ T cells, Average", "setting": "[3]", "result": 0.17}, {"measurement": "rank by T cell activation, DC model", "setting": "[3]", "result": "Upper 3"}, {"measurement": "response compared with WT peptide control, DC model", "setting": "[3]", "result": "G15 ^*"}]}
{"substance": "G[2-AOC]LGFVFT[PRG] [G26]", "values": [{"measurement": "Mouse splenocytes (ex vivo assay), Average", "setting": "[1]", "result": 61}, {"measurement": "FP binding score, percentage inhibition of tracer peptide binding, 4h", "setting": "HLA-A*0201", "result": 60, "unit": "%"}, {"measurement": "FP binding score, percentage inhibition of tracer peptide binding, 24h", "setting": "HLA-A*0201", "result": 54, "unit": "%"}, {"measurement": "DC model: IFN-γ-positive CD8+ T cells, Average", "setting": "[3]", "result": 0.45}, {"measurement": "rank by T cell activation, DC model", "setting": "[3]", "result": "Upper 3"}, {"measurement": "IFN-γ ELISpot response after restimulation with WT peptide", "setting": "HLA-A2 transgenic mice", "result": "do not always react to restimulation with WT peptide"}]}
{"substance": "yILGFVFTL [G9]", "values": [{"measurement": "Mouse splenocytes (ex vivo assay), Average", "setting": "[1]", "result": 20}, {"measurement": "rank by T cell activation, mouse splenocytes", "setting": "[1]", "result": "Lower 3"}, {"measurement": "T cell clone: percentage of IFN-γ producing T cells, Average", "setting": "[2]", "result": 1.1, "unit": "%"}, {"measurement": "rank by T cell activation, T cell clone", "setting": "[2]", "result": "Lower 3"}, {"measurement": "DC model: IFN-γ-positive CD8+ T cells, Average", "setting": "[3]", "result": 0.11}]}
{"substance": "[am-phg]MYSDFHFI [F111]", "values": [{"measurement": "Mouse splenocytes (ex vivo assay), Average", "setting": "[1]", "result": 86}, {"measurement": "FP binding score, percentage inhibition of tracer peptide binding, 4h", "setting": "HLA-A*0201", "result": 75, "unit": "%"}, {"measurement": "FP binding score, percentage inhibition of tracer peptide binding, 24h", "setting": "HLA-A*0201", "result": 72, "unit": "%"}, {"measurement": "binding score", "setting": "HLA-A*0201", "result": 72, "unit": "%"}, {"measurement": "DC model: IFN-γ-positive CD8+ T cells, Average", "setting": "[3]", "result": 0.08}, {"measurement": "T cell (IFN-γ) response of vaccinated HLA-A2 tg mice, restimulation not specified or both", "setting": "HLA-A2 transgenic mice", "result": "improved T cell responses; also recorded: improved immunogenicity; also recorded: higher homologous and heterologous responses"}, {"measurement": "IFN-γ ELISpot response after restimulation with WT peptide", "setting": "HLA-A2 transgenic mice", "result": "higher responses compared to WT-peptide vaccination; also recorded: higher IFN-γ responses than WT peptide-vaccinated mice"}]}
{"substance": "[SOME][2-AOC]LSTVLGV [N92]", "values": [{"measurement": "Mouse splenocytes (ex vivo assay), Average", "setting": "[1]", "result": 380}, {"measurement": "rank by T cell activation, mouse splenocytes", "setting": "[1]", "result": "Upper 3"}, {"measurement": "response compared with WT peptide control, mouse splenocytes", "setting": "[1]", "result": "N92 ^*"}, {"measurement": "FP binding score, percentage inhibition of tracer peptide binding, 4h", "setting": "HLA-A*0201", "result": 84, "unit": "%"}, {"measurement": "FP binding score, percentage inhibition of tracer peptide binding, 24h", "setting": "HLA-A*0201", "result": 81, "unit": "%"}, {"measurement": "DC model: IFN-γ-positive CD8+ T cells, Average", "setting": "[3]", "result": 0.04}, {"measurement": "IFN-γ ELISpot response after restimulation with WT peptide", "setting": "HLA-A2 transgenic mice", "result": "did not respond to restimulation"}, {"measurement": "IFN-γ ELISpot response after restimulation with homologous peptide", "setting": "HLA-A2 transgenic mice", "result": "did not respond to restimulation"}]}
{"substance": "[am-phg]MLSTVLGV [N46]", "values": [{"measurement": "Mouse splenocytes (ex vivo assay), Average", "setting": "[1]", "result": 363}, {"measurement": "FP binding score, percentage inhibition of tracer peptide binding, 4h", "setting": "HLA-A*0201", "result": 80, "unit": "%"}, {"measurement": "FP binding score, percentage inhibition of tracer peptide binding, 24h", "setting": "HLA-A*0201", "result": 76, "unit": "%"}, {"measurement": "binding score", "setting": "HLA-A*0201", "result": 81, "unit": "%"}, {"measurement": "DC model: IFN-γ-positive CD8+ T cells, Average", "setting": "[3]", "result": 0.02}, {"measurement": "rank by T cell activation, DC model", "setting": "[3]", "result": "Lower 3"}, {"measurement": "number of mice responding to WT peptide restimulation", "setting": "HLA-A2 transgenic mice", "result": "no responders"}, {"measurement": "number of mice responding to homologous peptide restimulation", "setting": "HLA-A2 transgenic mice", "result": "four"}, {"measurement": "IFN-γ ELISpot response after restimulation with WT peptide", "setting": "HLA-A2 transgenic mice", "result": "reduced to zero; also recorded: do not always react to restimulation with WT peptide"}, {"measurement": "IFN-γ ELISpot response after restimulation with homologous peptide", "setting": "HLA-A2 transgenic mice", "result": "increased the responses compared to vaccination with WT peptide"}]}
